Biological target: T1, human PAD4 (Homo sapiens, UniProt Q9UM07)
T1 construct: human PAD4 (NM_012387), A2-P663, was PCR amplified; His-SUMO (N, cleaved yes); made in house; host or cells: E. coli BL21(DE3)
Assay: In vitro PAD4 BAEE biochemical assay
Details: BAEE substrate 3 mM, 5 nM PAD4, 2 mM calcium chloride; geometric mean of multiple experiments
Outline: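 Recombinant human PAD4 (5 nM final) with 2 mM CaCl2 was preincubated with compound 30 min at 25 °C in MOPS buffer pH 7.6, then reacted with 3 mM BAEE for 2 h at 25 °C. After EDTA stop, released ammonia was detected by o-phthalaldehyde/DTT fluorescence (ex 405/em 535 nm); IC50 from four-parameter fit, geometric mean.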

T1 sequence (Q9UM07 2-663): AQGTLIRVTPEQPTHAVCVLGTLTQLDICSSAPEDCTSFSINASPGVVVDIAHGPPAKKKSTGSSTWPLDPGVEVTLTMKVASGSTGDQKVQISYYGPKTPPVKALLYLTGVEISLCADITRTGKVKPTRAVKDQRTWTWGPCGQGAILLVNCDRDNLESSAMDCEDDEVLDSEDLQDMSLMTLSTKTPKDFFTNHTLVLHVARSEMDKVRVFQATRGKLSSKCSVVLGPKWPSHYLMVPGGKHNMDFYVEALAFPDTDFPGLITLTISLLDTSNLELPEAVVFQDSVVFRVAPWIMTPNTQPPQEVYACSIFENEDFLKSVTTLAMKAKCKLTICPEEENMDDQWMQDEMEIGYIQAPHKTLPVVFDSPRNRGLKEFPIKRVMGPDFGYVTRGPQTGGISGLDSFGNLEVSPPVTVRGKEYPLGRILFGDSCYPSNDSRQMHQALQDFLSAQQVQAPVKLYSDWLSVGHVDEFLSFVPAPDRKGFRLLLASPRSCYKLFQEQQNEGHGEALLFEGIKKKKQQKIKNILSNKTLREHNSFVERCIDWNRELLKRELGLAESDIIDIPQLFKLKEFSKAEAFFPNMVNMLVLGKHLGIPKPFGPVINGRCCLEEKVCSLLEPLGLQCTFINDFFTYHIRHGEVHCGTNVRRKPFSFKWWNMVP

Structure (SMILES) | IC50
COc1cc(C(=O)N2CC[C@@H](C(F)(F)F)[C@@H](N)C2)cc2nc(-c3cc4ccc5nc4n3CCCCCCC(C)(C)C(=O)N[C@@H]5C)n(C)c12 [Example 192, (11~{R})-17-[5-[(3~{R},4~{R})-3-amino-4-(trifluoromethyl)piperidine-1-carbonyl]-7-methoxy-1-methyl-benzimidazol-2-yl]-8,8,11-trimethyl-1,10,19-triazatricyclo[10.5.2.0^{15,18}]nonadeca-12(19),13,15(18),16-tetraen-9-one] | 6.69 µM
COc1cc(C(=O)N2C[C@H](N)C[C@@H](F)C2)cc2nc(-c3cc4ccc5nc4n3CCCCCCC(C)(C)C(=O)N[C@@H]5C)n(C)c12 [Example 193, (11~{R})-17-[5-[(3~{R},5~{R})-3-amino-5-fluoro-piperidine-1-carbonyl]-7-methoxy-1-methyl-benzimidazol-2-yl]-8,8,11-trimethyl-1,10,19-triazatricyclo[10.5.2.0^{15,18}]nonadeca-12(19),13,15(18),16-tetraen-9-one] | 0.066 µM
C[C@H]1NC(=O)C(C)(C)CCCCCCn2c(-c3nc4cc(C(=O)N5C[C@H](N)C[C@@H](F)C5)c(F)cc4n3C3CC3)cc3ccc1nc32 [Example 194, (11~{R})-17-[5-[(3~{R},5~{R})-3-amino-5-fluoro-piperidine-1-carbonyl]-1-cyclopropyl-6-fluoro-benzimidazol-2-yl]-8,8,11-trimethyl-1,10,19-triazatricyclo[10.5.2.0^{15,18}]nonadeca-12(19),13,15(18),16-tetraen-9-one] | 0.15 µM
COc1cc(C(=O)N2CC[C@@H](O)[C@@H](N)C2)cc2nc(-c3cc4ccc5nc4n3CCCCCCC(C)(C)C(=O)N[C@@H]5C)n(C)c12 [Example 195, (11~{R})-17-[5-[(3~{S},4~{R})-3-amino-4-hydroxy-piperidine-1-carbonyl]-7-methoxy-1-methyl-benzimidazol-2-yl]-8,8,11-trimethyl-1,10,19-triazatricyclo[10.5.2.0^{15,18}]nonadeca-12(19),13,15(18),16-tetraen-9-one] | 0.056 µM
COc1cc(C(=O)N2CC[C@@H](C)[C@@H](N)C2)cc2nc(-c3cc4ccc5nc4n3CCCCCCC(C)(C)C(=O)N[C@@H]5C)n(C)c12 [Example 196, (11~{R})-17-[5-[(3~{R},4~{R})-3-amino-4-methyl-piperidine-1-carbonyl]-7-methoxy-1-methyl-benzimidazol-2-yl]-8,8,11-trimethyl-1,10,19-triazatricyclo[10.5.2.0^{15,18}]nonadeca-12(19),13,15(18),16-tetraen-9-one] | 0.116 µM
COc1cc(C(=O)N[C@H]2CNC[C@@H]2F)cc2nc(-c3cc4ccc5nc4n3CCCCCCC(C)(C)C(=O)N[C@@H]5C)n(C)c12 [Example 197, ~{N}-[(3~{S},4~{S})-4-fluoropyrrolidin-3-yl]-7-methoxy-1-methyl-2-[(11~{R})-8,8,11-trimethyl-9-oxo-1,10,19-triazatricyclo[10.5.2.0^{15,18}]nonadeca-12(19),13,15(18),16-tetraen-17-yl]benzimidazole-5-carboxamide] | 6.49 µM
COc1cc(C(=O)N[C@@H]2CNC[C@@H]2F)cc2nc(-c3cc4ccc5nc4n3CCCCCCC(C)(C)C(=O)N[C@@H]5C)n(C)c12 [Example 198, ~{N}-[(3~{R},4~{S})-4-fluoropyrrolidin-3-yl]-7-methoxy-1-methyl-2-[(11~{R})-8,8,11-trimethyl-9-oxo-1,10,19-triazatricyclo[10.5.2.0^{15,18}]nonadeca-12(19),13,15(18),16-tetraen-17-yl]benzimidazole-5-carboxamide] | 5.96 µM
COc1cc(C(=O)N[C@H]2CNC[C@H]2F)cc2nc(-c3cc4ccc5nc4n3CCCCCCC(C)(C)C(=O)N[C@@H]5C)n(C)c12 [Example 199, ~{N}-[(3~{S),4~{R})-4-fluoropyrrolidin-3-yl]-7-methoxy-1-methyl-2-[(11~{R})-8,8,11-trimethyl-9-oxo-1,10,19-triazatricyclo[10.5.2.0^{15,18}]nonadeca-12(19),13,15(18),16-tetraen-17-yl]benzimidazole-5-carboxamide] | 18.4 µM
COc1cc(C(=O)N[C@@H]2CNC[C@H]3C[C@H]32)cc2nc(-c3cc4ccc5nc4n3CCCCCCC(C)(C)C(=O)N[C@@H]5C)n(C)c12 [Example 201, ~{N}-[(1~{S),5~{S},6~{R})-3-azabicyclo[4.1.0]heptan-5-yl]-7-methoxy-1-methyl-2-[(11~{R})-8,8,11-trimethyl-9-oxo-1,10,19-triazatricyclo[10.5.2.0^{15,18}]nonadeca-12(19),13,15(18),16-tetraen-17-yl]benzimidazole-5-carboxamide] | 0.737 µM
COc1cc(C(=O)N[C@@H]2CNC[C@@H]3C[C@@H]32)cc2nc(-c3cc4ccc5nc4n3CCCCCCC(C)(C)C(=O)N[C@@H]5C)n(C)c12 [Example 202, ~{N}-[(1~{R},5~{S},6~{S})-3-azabicyclo[4.1.0]heptan-5-yl]-7-methoxy-1-methyl-2-[(11~{R})-8,8,11-trimethyl-9-oxo-1,10,19-triazatricyclo[10.5.2.0^{15,18}]nonadeca-12(19),13,15(18),16-tetraen-17-yl]benzimidazole-5-carboxamide] | 5.13 µM
COc1cc(C(=O)N[C@H]2CNC[C@H]3C[C@H]32)cc2nc(-c3cc4ccc5nc4n3CCCCCCC(C)(C)C(=O)N[C@@H]5C)n(C)c12 [Example 203, ~{N}-[(1~{S},5~{R},6~{R})-3-azabicyclo[4.1.0]heptan-5-yl]-7-methoxy-1-methyl-2-[(11~{R})-8,8,11-trimethyl-9-oxo-1,10,19-triazatricyclo[10.5.2.0^{15,18}]nonadeca-12(19),13,15(18),16-tetraen-17-yl]benzimidazole-5-carboxamide] | 0.114 µM
COc1cc(C(=O)N2CC(N)CC(F)(F)C2)cc2nc(-c3cc4ccc5nc4n3CCCCCCC(C)(C)C(=O)N[C@@H]5C)n(C)c12 (stereo partly shown) [Example 204, (11~{R})-17-[5-(5-amino-3,3-difluoro-piperidine-1-carbonyl)-7-methoxy-1-methyl-benzimidazol-2-yl]-8,8,11-trimethyl-1,10,19-triazatricyclo[10.5.2.0^{15,18}]nonadeca-12(19),13,15(18),16-tetraen-9-one] | 3.35 µM
COc1cc(C(=O)N2C[C@H]3C[C@H]3[C@@H](N)C2)cc2nc(-c3cc4ccc5nc4n3CCCCCCC(C)(C)C(=O)N[C@@H]5C)n(C)c12 [Example 206, (11~{R})-17-[5-[(1~{S},5~{R},6~{R})-5-amino-3-azabicyclo[4.1.0]heptane-3-carbonyl]-7-methoxy-1-methyl-benzimidazol-2-yl]-8,8,11-trimethyl-1,10,19-triazatricyclo[10.5.2.0^{15,18}]nonadeca-12(19),13,15(18),16-tetraen-9-one] | 0.85 µM
COc1cc(C(=O)N2[C@H]3CC[C@@H]2[C@H](N)[C@H](O)C3)cc2nc(-c3cc4ccc5nc4n3CCCCCCC3(CC3)C(=O)N[C@@H]5C)n(C)c12 [Example 207, (11~{R})-17-[5-[(1~{R},2~{S},3~{R},5~{S})-2-amino-3-hydroxy-8-azabicyclo[3.2.1]octane-8-carbonyl]-7-methoxy-1-methyl-benzimidazol-2-yl]-11-methyl-spiro[1,10,19-triazatricyclo[10.5.2.0^{15,18}]nonadeca-12(19),13,15(18),16-tetraene-8,1′-cyclopropane]-9-one] | 0.187 µM
COc1cc(C(=O)N2CC[C@H]3OCCN[C@H]3C2)cc2nc(-c3cc4ccc5cc4n3CCCCCCC3(CC3)C(=O)N[C@@H]5C)n(C)c12 [Example 208, (11~{R})-17-[5-[(4~{a}-{S},8~{a}~{R})-2,3,4,4~{a},5,7,8,8~{a}-octahydropyrido[4,3-b][1,4]oxazine-6-carbonyl]-7-methoxy-1-methyl-benzimidazol-2-yl]-11-methyl-spiro[1,10-diazatricyclo[10.5.2.0^{15,18}]nonadeca-12(19),13,15(18),16-tetraene-8,1′-cyclopropane]-9-one] | 0.136 µM
COc1cc(C(=O)N2[C@H]3CC[C@@H]2[C@H](N)C3)cc2nc(-c3cc4ccc5nc4n3CCCCN(C)C(=O)N[C@@H]5C)c(C)n12 [Example 209, (9˜{R})-15-[7-[(1˜{R},2˜{R},4˜{S})-2-amino-7-azabicyclo[2.2.1]heptane-7-carbonyl]-5-methoxy-3-methyl-imidazo[1,2-a]pyridin-2-yl]-6,9-dimethyl-1,6,8,17-tetrazatricyclo[8.5.2.0^{13,16}]heptadeca-10(17),11,13(16),14-tetraen-7-one] | 0.074 µM
COc1cc(C(=O)N2[C@H]3CC[C@@H]2[C@H](N)C3)cc2nc(-c3cc4ccc5nc4n3CCCCCN(C)C(=O)N[C@@H]5C)c(C)n12 [Example 210, (10~{R})-16-[7-[(1~{R},2~{R},4~{S})-2-amino-7-azabicyclo[2.2.1]heptane-7-carbonyl]-5-methoxy-3-methyl-imidazo[1,2-a]pyridin-2-yl]-7,10-dimethyl-1,7,9,18-tetrazatricyclo[9.5.2.0^{14,17}]octadeca-11(18),12,14(17),15-tetraen-8-one] | 0.039 µM
COc1cc(C(=O)N2[C@H]3CC[C@@H]2[C@H](N)C3)cc2nc(-c3cc4ccc5nc4n3CCCCCCCN(C)C(=O)N[C@@H]5C)c(C)n12 [Example 211, (12~{R})-18-[7-[(1~{R},2~{R},4~{S})-2-amino-7-azabicyclo[2.2.1]heptane-7-carbonyl]-5-methoxy-3-methyl-imidazo[1,2-a]pyridin-2-yl]-9,12-dimethyl-1,9,11,20-tetrazatricyclo[11.5.2.0^{16,19}]icosa-13(20),14,16(19),17-tetraen-10-one] | 0.034 µM
COc1cc(C(=O)N2[C@H]3CC[C@@H]2[C@H](N)C3)cc2nc(-c3cc4ccc5nc4n3CCCCCCN(C)C(=O)N[C@@H]5C)c(C)n12 [Example 212, (11~{R})-17-[7-[(1~{R},2~{R},4~{S})-2-amino-7-azabicyclo[2.2.1]heptane-7-carbonyl]-5-methoxy-3-methyl-imidazo[1,2-a]pyridin-2-yl]-8,11-dimethyl-1,8,10,19-tetrazatricyclo[10.5.2.0^{15,18}]nonadeca-12(19),13,15(18),16-tetraen-9-one] | 0.022 µM
